From patent US5508273A, “Substituted phosphonic acids and derivatives useful in treating bone wasting diseases” (priority 1993, dated 1996)

Assays:
[1] = target: T1, human prostatic tyrosyl phosphatase (Homo sapiens, UniProt P15309); experiment: biochemical; conditions: 30 minutes at 37° C., pH 5.5, (14C)-phosphotyrosine substrate; read-out: Tyr-Pase IC50
T1 construct: purchased Sigma Chemical Co
T1 sequence (P15309 33-386): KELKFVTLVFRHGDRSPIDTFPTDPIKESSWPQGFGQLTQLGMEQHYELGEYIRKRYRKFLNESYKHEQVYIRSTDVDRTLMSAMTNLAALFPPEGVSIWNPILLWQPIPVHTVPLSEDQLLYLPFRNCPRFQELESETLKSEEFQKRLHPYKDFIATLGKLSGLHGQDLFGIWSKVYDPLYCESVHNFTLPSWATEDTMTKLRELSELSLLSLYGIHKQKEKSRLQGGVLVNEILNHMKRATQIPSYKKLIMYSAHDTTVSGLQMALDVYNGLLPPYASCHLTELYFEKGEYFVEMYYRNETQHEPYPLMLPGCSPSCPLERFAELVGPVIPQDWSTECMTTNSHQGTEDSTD
Procedure: Inhibition of the activity of tyrosyl protein phosphatase was evaluated by incubating an aliquot of purified human prostatic tyrosyl protein acid phosphatase (Sigma Chemical Co.) with radiolabeled phosphotyrosine. The radiolabeled substrate, (^14 C)-phosphotyrosine, is separated from the product, (^14 C)-tyrosine by ion exchange chromatography and the production of radiolabeled tyrosine is quantified. Test compounds are screened at a concentration of one micromolar to 1 nM. The ability of test compounds to inhibit tyrosyl phosphatase was expressed as the % inhibition at the highest concentration of test compound tested and/or as the IC50 in Table 1.
The test compounds were incubated in the presence of tyrosyl acid phosphatase and radiolabeled substrate {(^14 C)-phosphotyrosine, (NEN Dupont Custom Synthesis)} plus cold O-phospho-L-tyrosine{(10 uM) (Sigma Chemical Co.)} in a 0.05 mM sodium acetate buffer (pH 5.5) for 30 minutes at 37° C. […] The incubation mixture was passed over an ion-exchange column {(Ag 1-X8) (Bio-Rad Laboratories)} and washed with 2.5 ml of distilled, deionized water. The total column effluent containing the radiolabeled product (^14 C-tyrosine) was collected and quantified by liquid scintillation spectroscopy. The test compounds IC50 was calculated using a quantal (all-or-none) dose-response calculation.

[2] = tested on: osteoblast-line cells (mouse MC3T3-E 1 and human TE-85); experiment: Osteoblast cell proliferation (3H-thymidine incorporation); format: cell-based; conditions: MC3T3-E1, control is 100%, cell line (MC3T3-E 1 or TE-85) not stated per value, read-out: Osteoblast Prolif (% XControl@ 0.01 uM)
Text: Compounds of the present invention have utility to treat bone wasting diseases including osteoporosis in animals including humans through enhancement of bone calcification as well as inhibition of bone degeneration or resorption. The compounds of the present invention have been evaluated as inhibitors of human prostatic tyrosyl phosphatase, an isoenzyme similar to a tyrosyl phosphatase present in human osteoblasts. Inhibitors of the enzyme are involved with the stimulation of osteoblast cell proliferation in cell culture which is predictive of enhancement of bone mass and bone formation in vivo. Inhibitors of osteoclastic acid phosphatase prevent the resorptive action of osteoclasts and thereby prevent the degradation of bone mass associated with osteoporosis. Table 1 reports the results of the compounds of the present invention in inhibiting human prostatic tyrosyl phosphatase and osteoclastic acid phosphatase. […] Their ability to stimulate osteoblast cell proliferation at 0.01 uM concentration is presented also in Table 1. […] However, such compounds may be useful as prodrugs to the acid (R^1 and R^2 equal H) and as intermediates useful in making the corresponding acid.
The action of select compounds to stimulate osteoblast growth can be measured in culture by estimating the rate of DNA synthesis by the rate of ^3 H-thymidine incorporation into DNA. Only cells undergoing mitosis will synthesize new DNA and thus only these cells will incorporate the radiolabeled DNA-specific thymidine. The stimulation of the proliferation and differentiation of bone-forming cells, osteoblasts, is a prerequisite for an increase in bone formation and bone mass. The ability of agents to increase osteoblast proliferation and differentiation can be predicted by their action on cultured osteoblast-line cells in vitro. In this test, mouse (MC3T3-E 1) cloned by Sudo et al. Koriyama, Japan) and human (TE-85) osteoblast-line cells (American Type Tissue Culture Collection, #CRL 1543, Rockville, Md.) were cultured/n vitro and the effect of various agents was tested on osteoblast cell proliferation. Osteoblasts were isolated and cultured according to literature methods. [J. E. Puzas, R. H. Drivdahl, A. G. Howard, and D. J. Baylink, Proc. Soc. Exper. Biol. Med., 166 113-122, […]]. Cells were harvested from large culture flasks, where they were allowed to grow to near confluency, using trypsin. The cells were plated into 96 well culture plates, 1600 cells in 100 μL per well in Dulbecco's Modified Eagle's Medium with 25 mM HEPES buffer, L-glutamine (584 mg/L); D-glucose (4.5 g/L) supplemented with fetal bovine sera (10%); penicillin (100 units/mL)and streptomycin (100 mcg/mL); sodium pyruvate (10 μM final concentration). The cells were allowed to plate overnight in DMEM containing 10% fetal bovine sera at 37° C., in an atmosphere of 5% CO2 /95% air. Following their placement into 96 well culture plates all the osteoblast-line cells, either the MC3T3-E 1 or the TE-85 cell lines, were allowed an additional 24 hours preincubation period in media containing only 0.1% fetal bovine sera. The next day the test compounds were added and screened at concentrations ranging from 10^-4 to 10^-8 M depending on the study. Twenty hours later, a 20 μL aliquot of media containing 0.4 μCi of ^3 H-thymidine was added to each culture well. The cells were then incubated an additional 4 hours. The incubation was terminated by aspirating the media and washing with HBSS (Hank's Balanced Salt Solution). The cells were then treated with 100 μL of 0.5% trypsin and […] of EDTA for 30 minutes at room temperature. The cells were then aspirated onto a glass fiber filter and washed with water. The radioactivity on the filters was quantified by liquid scintillation spectroscopy. The rate of ^3 H-thymidine incorporation into DNA is then utilized as an index of cell proliferation. The results are shown in Table 1 expressed as % times control where control is 100%.

[3] = target: T2, Human osteoclastic acid phosphatase (OAP) (Homo sapiens, UniProt P13686); experiment: Osteoclastic Acid Phosphatase (OAP) inhibition; format: biochemical; conditions: pH 5.0, room temperature, 20 minutes; for inhibition at 100 µM: read-out: OAPase % Inh@100 uM
T2 construct: purified from hairy cell leukemia spleen; from tissue; host or cells: human hairy cell leukemia spleen
T2 sequence (P13686 22-325): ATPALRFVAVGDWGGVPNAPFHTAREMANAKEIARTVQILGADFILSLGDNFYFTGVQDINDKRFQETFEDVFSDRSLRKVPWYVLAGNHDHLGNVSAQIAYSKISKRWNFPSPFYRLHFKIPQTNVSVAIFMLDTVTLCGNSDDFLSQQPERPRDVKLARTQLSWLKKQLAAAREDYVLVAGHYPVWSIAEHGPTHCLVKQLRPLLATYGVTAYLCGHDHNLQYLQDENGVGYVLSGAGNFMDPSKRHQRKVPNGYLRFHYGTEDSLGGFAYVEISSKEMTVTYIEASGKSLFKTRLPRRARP
Procedure: Inhibitors of the enzyme are involved with the stimulation of osteoblast cell proliferation in cell culture which is predictive of enhancement of bone mass and bone formation in vivo. Inhibitors of osteoclastic acid phosphatase prevent the resorptive action of osteoclasts and thereby prevent the degradation of bone mass associated with osteoporosis.
The enzyme was stored at -80° C. and was diluted in 50 mM, pH 5.0, sodium acetate buffer prior to use. Test compounds were dissolved in ethanol, DMSO, or water and tested at 100 μM. The assay measures the ability of the enzyme to dephosphorylate methylumbelliferone phosphate to the product, methylumbelliferone, which is fluorescent. The enzyme assay is performed in 50 mM, pH 5.0, sodium acetate buffer as follows: 5 μL of compound was added to 150 μL Of buffered enzyme solution. […] The reaction was performed at room temperature at pH=5.0 and terminated after 20 minutes by the addition of 50 μL of 4N NaOH. The reaction product, methylumbelliferone, was measured by fluorescence determination using a Dynatech Microfluor Fluorescence detector.

| SMILES | IC50 [1] [µM] | activity at 0.01 µM [2] [%] | IC50 ([3]; read-out: OAPase IC50) [µM] | inhibition at 100 µM [3] [%] |
| --- | --- | --- | --- | --- |
| O=P(O)(O)C(CCCCc1ccccc1)c1ccccc1 (centres unmarked) [Cmpd 10] | 17.4 | 124 | 100 |  |
| O=P(O)(O)C(c1ccccc1)c1ccccc1F (centres unmarked) [Cmpd 12] | 40.9 | 124 |  | 12 |
| Cc1ccc(C(c2ccccc2)P(=O)(O)O)cc1 (centres unmarked) [Cmpd 22] | 152 | 116 |  | 22 |
| Cc1cccc(C(Cc2ccccc2)P(=O)(O)O)c1 (centres unmarked) [Cmpd 29] | 290 | 99 |  | 15 |
| Cc1cccc(C(Cc2ccc(Cl)cc2)P(=O)(O)O)c1 (centres unmarked) [Cmpd 30] | 81.9 | 97 |  |  |
| O=P(O)(O)C(Cc1ccc(Cl)cc1)c1ccccc1 (centres unmarked) [Cmpd 33] | 34.5 | 104 |  | 30 |
| O=P(O)(O)C(Cc1ccccc1)c1ccccc1 (centres unmarked) [Cmpd 34] | 89.2 | 156 |  | 15 |
